Read-outs that look alike come from different tables or passages of the source.

Here are results for 2 compounds from PMC5130624 (International journal for parasitology, 2016).

The test system of data set [1] is SnCDPK1 in S. neurona cell lysate. Description: Cell lysate thermal shift assay. In kind it is binding, Sarcocystis neurona. Particulars: BKI 2 µM, 0.5% DMSO, Tm (compound)-Tm (DMSO).
Data set [2] deals with recombinant SnCDPK1. Description: SnCDPK1 kinase activity assay. Particulars: read-out: SnCDPK1 enzyme IC50; inhibition of phosphorylation activity. In kind it is biochemical, Sarcocystis neurona.
In data set [3] the test system is S. neurona strain F9F merozoites. Description: S. neurona parasite growth assay in bovine turbinate cells. In kind it is cell-based, Sarcocystis neurona.
The test system of another data set is TgCDPK1. Particulars: read-out: TgCDPK1 enzyme IC50; ref Johnson et al., 2012; cited from earlier work.
Another data set deals with hERG. Particulars: cited from earlier work.
A short description of data set [4]: Oral pharmacokinetics in newborn calves. Particulars: unpublished data.
For data set [5], the system named is recombinant SnCDPK1. Briefly: Recombinant SnCDPK1 thermal shift assay. Format: binding, Sarcocystis neurona. Particulars: 20 µM BKI, 5% DMSO; change in Tm vs DMSO control.
The target in another data set is T1, recombinant TgCDPK1 (Toxoplasma gondii, UniProt Q9BJF5).
T1 sequence (Q9BJF5 1-507): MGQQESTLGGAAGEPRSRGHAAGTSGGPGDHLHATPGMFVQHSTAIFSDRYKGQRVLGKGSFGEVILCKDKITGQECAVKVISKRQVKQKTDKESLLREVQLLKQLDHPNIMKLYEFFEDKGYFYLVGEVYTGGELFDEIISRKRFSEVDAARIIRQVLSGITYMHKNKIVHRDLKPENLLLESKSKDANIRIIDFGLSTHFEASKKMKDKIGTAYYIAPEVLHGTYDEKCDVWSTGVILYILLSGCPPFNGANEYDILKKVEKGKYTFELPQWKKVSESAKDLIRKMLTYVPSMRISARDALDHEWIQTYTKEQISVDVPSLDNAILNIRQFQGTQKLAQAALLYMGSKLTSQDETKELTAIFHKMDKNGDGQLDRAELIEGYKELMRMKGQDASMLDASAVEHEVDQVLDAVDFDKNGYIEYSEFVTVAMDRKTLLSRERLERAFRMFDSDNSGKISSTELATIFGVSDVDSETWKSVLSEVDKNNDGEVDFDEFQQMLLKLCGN
Briefly: Recombinant TgCDPK1 thermal shift assay. The note with it: 20 µM BKI, 5% DMSO; change in Tm vs DMSO control. Format: binding.

For data set [6] the following is noted: bovine, in vivo.

For `CCOc1ccc2cc(-c3nn(CC4CCN(C)CC4)c4ncnc(N)c34)ccc2c1` [compound 1294], the “S. neurona cell CDPK1 Thermal Stability (°C)” value in data set [1] was determined as 2.7 °C. Besides, the IC50 (commonly the concentration that gives 50% inhibition) at recombinant SnCDPK1 [2] is under 10 nM; with TgCDPK1 it was […]. Besides, in data set [3] (Sarcocystis neurona, in Bos taurus, 96 h, read-out: S. neurona cell growth EC50), the EC50 (usually the concentration at which the effect is half-maximal) worked out at 68 nM. Further, in [3] (added at parasite inoculation (0 h) versus 2 h p.i., 4 days), the “Effect of time of addition on growth inhibition” value was “more effective if added at the time of infection rather than 2 h later”. Besides, the hERG inhibition result in the data set with hERG (ref Ojo et al., 2014a) was “has recently been shown to have hERG inhibition”. Further, the Oral pharmacokinetics entry in data set [4] is “outstanding oral pharmacokinetics”.
For `CCOc1ccc2cc(-c3nn(C(C)(C)C)c(N)c3C(N)=O)cnc2c1` [compound 1517], the “Recombinant SnCDPK1 Thermal Shift (°C) at 20 µM” value with recombinant SnCDPK1 [5] is 9.6 °C. For the same compound, the “Recombinant TgCDPK1 Thermal Shift (°C) at 20 µM” value on recombinant TgCDPK1 amounted to 10.5 °C. For the same compound, the “S. neurona cell CDPK1 Thermal Stability (°C)” value in data set [1] was 8.0 °C. Further, the IC50 at recombinant SnCDPK1 [2] was under 10 nM. For the same compound, the Oral pharmacokinetics entry in data set [6] is “outstanding oral pharmacokinetics”. Besides, the hERG inhibition result in the data set with hERG (ref Vidadala et al., 2016) is given as “lack of hERG inhibition”.
